Reference: patent publication US11713344B2 (DONG-A ST CO., LTD., priority 2017, dated 2023)
pEC50: −log10 of the molar value.

How the values were obtained:
[1] = Body weight loss efficacy by 5-day repeated injection vs Liraglutide and MEDI0382, obese mice (Exp. Ex. 10); format: in vivo, C57BL/6 mouse; details: 30 nmol/kg s.c. once a day x 4
Experimental: Male laboratory mice (C57BL/6 mouse) were given diet containing high fat. The mice with high-fat-diet-induced obesity were grouped by body weight before beginning the experiment. […] Body weight and food intake was measured once per day, at the same time each day.

Human GLP-1 receptors = Human GLP-1 receptors (Homo sapiens, UniProt P43220); assay: GLP-1 receptor activation assay (CRE-luciferase reporter, CHO-K1)
Experimental: Then, the resulting increased luciferase activity was evaluated as a measurement of the effect on each receptor activation.
After 3 hours of transfection, medium was exchanged to Alpha Minimal Essential Medium (α-MEM) comprising 10% fetal bovine serum (FBS). Next day, the medium was exchanged to α-MEM comprising the analog of the present invention and 0.1% bovine serum albumin (BSA). After 6 hours, dual luciferase assay reagent was added in the same amount as the medium in which the cells were submerged, and firefly luciferase and Renilla luciferase activities were continuously measured. Firefly luciferase activity values were corrected against Renilla luciferase activity to yield transfection efficiency.

Human glucagon receptors = Human glucagon receptors (Homo sapiens, UniProt P47871); assay: Glucagon receptor activation assay (CRE-luciferase reporter, CHO-K1)
Human glucagon receptors, sequence (P47871 26-477): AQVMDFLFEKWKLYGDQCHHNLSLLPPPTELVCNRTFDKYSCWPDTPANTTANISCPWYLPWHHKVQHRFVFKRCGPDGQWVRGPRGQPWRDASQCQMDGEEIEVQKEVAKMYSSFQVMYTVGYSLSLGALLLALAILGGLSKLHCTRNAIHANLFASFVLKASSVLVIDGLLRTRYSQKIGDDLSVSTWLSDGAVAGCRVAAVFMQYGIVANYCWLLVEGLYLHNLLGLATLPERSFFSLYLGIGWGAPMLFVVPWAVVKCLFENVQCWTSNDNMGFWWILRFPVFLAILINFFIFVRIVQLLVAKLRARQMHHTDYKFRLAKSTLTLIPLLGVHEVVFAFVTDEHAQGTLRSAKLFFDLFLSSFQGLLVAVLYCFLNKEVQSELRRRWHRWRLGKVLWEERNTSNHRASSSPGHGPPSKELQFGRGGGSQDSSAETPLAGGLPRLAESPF

Human GLP-1 receptors, sequence (P43220 24-463): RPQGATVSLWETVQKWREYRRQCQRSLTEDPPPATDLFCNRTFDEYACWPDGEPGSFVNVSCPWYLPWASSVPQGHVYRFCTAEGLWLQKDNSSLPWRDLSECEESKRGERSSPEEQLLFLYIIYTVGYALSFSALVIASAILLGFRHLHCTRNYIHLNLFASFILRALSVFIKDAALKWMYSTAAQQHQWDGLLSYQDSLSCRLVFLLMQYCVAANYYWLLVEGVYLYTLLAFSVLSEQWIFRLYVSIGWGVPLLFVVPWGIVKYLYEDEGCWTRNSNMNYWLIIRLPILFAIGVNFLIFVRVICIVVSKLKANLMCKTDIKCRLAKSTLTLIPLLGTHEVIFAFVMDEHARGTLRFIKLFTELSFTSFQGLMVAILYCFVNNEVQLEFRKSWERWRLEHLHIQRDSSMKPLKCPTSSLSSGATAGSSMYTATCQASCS

pEC50 (Human GLP-1 receptors) | pEC50 (Human glucagon receptors) | SMILES | body weight loss from baseline [1] [%]
> 11.00 | 10.00 to 11.00 | CCCCCCCCCCCCCCCC(=O)N[C@@H](CCC(=O)NCCCC[C@H](NC(=O)[C@H](CC(=O)O)NC(=O)[C@H](CO)NC(=O)[C@@H](NC(=O)[C@H](Cc1ccccc1)NC(=O)[C@@H](NC(=O)CNC(=O)[C@H](CCC(N)=O)NC(=O)[C@H](CO)NC(=O)[C@@H](N)Cc1c[nH]cn1)[C@@H](C)O)[C@@H](C)O)C(=O)N[C@@H](CO)C(=O)N[C@@H](CCC(=O)O)C(=O)N[C@@H](Cc1ccc(O)cc1)C(=O)N[C@@H](CC(C)C)C(=O)N[C@@H](CC(=O)O)C(=O)N[C@@H](CO)C(=O)N[C@@H](CCC(=O)O)C(=O)N[C@@H](CCCNC(=N)N)C(=O)N[C@@H](C)C(=O)N[C@@H](CCCNC(=N)N)C(=O)N[C@@H](CC(=O)O)C(=O)N[C@@H](Cc1ccccc1)C(=O)N[C@H](C(=O)N[C@@H](C)C(=O)N[C@@H](Cc1c[nH]c2ccccc12)C(=O)N[C@@H](CC(C)C)C(=O)N[C@@H](CCC(=O)O)C(=O)N[C@@H](C)C(=O)NCC(=O)NCC(=O)O)C(C)C)C(=O)O [MEDI0382, reference compound] | 8.0
> 11.00 | > 11.00 | CCCCCCCCCCCCCCCCCC(=O)N[C@@H](CCC(=O)NCCOCCOCC(=O)NCCOCCOCC(=O)NCCCC[C@H](NC(=O)[C@H](CC(=O)O)NC(=O)[C@H](CO)NC(=O)[C@@H](NC(=O)[C@H](Cc1ccccc1)NC(=O)[C@@H](NC(=O)CNC(=O)[C@H](CCC(N)=O)NC(=O)C(C)(C)NC(=O)[C@@H](N)Cc1c[nH]cn1)[C@@H](C)O)[C@@H](C)O)C(=O)N[C@@H](CO)C(=O)N[C@@H](CCCCN)C(=O)N[C@@H](Cc1ccc(O)cc1)C(=O)N[C@@H](CC(C)C)C(=O)N[C@@H](CC(=O)O)C(=O)N[C@H]1CCC(=O)NCCNC(=O)CC[C@@H](C(=O)N[C@@H](CC(=O)O)C(=O)N[C@@H](Cc2ccccc2)C(=O)N[C@H](C(=O)N[C@@H](CCC(N)=O)C(=O)N[C@@H](Cc2c[nH]c3ccccc23)C(=O)N[C@@H](CC(C)C)C(=O)N[C@@H](CCSC)C(=O)N[C@@H](CC(N)=O)C(=O)N[C@H](C(=O)N[C@@H](CCCCN)C(=O)O)[C@@H](C)O)C(C)C)NC(=O)[C@H](C)NC(=O)[C@H](CCCNC(=N)N)NC(=O)[C@H](CCCNC(=N)N)NC1=O)C(=O)O [Compound 30, H-HAibQGTFTSDZSKYLDERRAEDFVQWLMNTK-OH] | 
> 11.00 | > 11.00 | CCCCCCCCCCCCCCCCCC(=O)N[C@@H](CCC(=O)NCCOCCOCC(=O)NCCOCCOCC(=O)NCCCC[C@H](NC(=O)[C@H](CC(=O)O)NC(=O)[C@H](CO)NC(=O)[C@@H](NC(=O)[C@H](Cc1ccccc1)NC(=O)[C@@H](NC(=O)CNC(=O)[C@H](CCC(N)=O)NC(=O)C(C)(C)NC(=O)[C@@H](N)Cc1c[nH]cn1)[C@@H](C)O)[C@@H](C)O)C(=O)N[C@@H](CO)C(=O)N[C@@H](CCCCN)C(=O)N[C@@H](Cc1ccc(O)cc1)C(=O)N[C@@H](CC(C)C)C(=O)N[C@@H](CC(=O)O)C(=O)N[C@H]1CCC(=O)NCCCC[C@@H](C(=O)N[C@@H](CC(=O)O)C(=O)N[C@@H](Cc2ccccc2)C(=O)N[C@H](C(=O)N[C@@H](CCC(N)=O)C(=O)N[C@@H](Cc2c[nH]c3ccccc23)C(=O)N[C@@H](CC(C)C)C(=O)N[C@@H](CCSC)C(=O)N[C@@H](CC(N)=O)C(=O)N[C@H](C(=O)N[C@@H](CCCCN)C(=O)O)[C@@H](C)O)C(C)C)NC(=O)[C@H](C)NC(=O)[C@H](CCCNC(=N)N)NC(=O)[C@H](CCCNC(=N)N)NC1=O)C(=O)O [Compound 14, H-HAibQGTFTSDZSKYLDERRAKDFVQWLMNTK-OH] | 
